Results: ChEMBL document CHEMBL4715699, “Design, synthesis and biological evaluation of 1,3,6-trisubstituted β-carboline derivatives for cytotoxic and anti-leishmanial potential” (Bioorg Med Chem Lett, 2016)
Calls of active or inactive are those of the source. No cut-off for these calls is given here.

How the values were obtained:
L132 = assay: Cytotoxicity against human L-132 cells assessed as reduction in cell viability at 10 uM measured after 24 hrs by MTT assay relative to control; type: cell-based; settings: L132, 24 h
MCF7 [1] = assay: Induction of apoptosis in human MCF7 cells at 10 uM measured after 6 hrs by Annexin V/Propidium iodide staining based confocal microscopy; type: functional, cell-based
Leishmania donovani = assay: Antileishmanial activity against Leishmania donovani MHOM/80/IN/Dd8 promastigotes infected in THP-1 cells assessed as measured after 48 hrs by MTT assay; type: functional, organism-based
MCF7 [2] = assay: Cytotoxicity against human MCF-7 cells assessed as reduction in cell viability at 10 uM measured after 24 hrs by MTT assay relative to control; type: functional, cell-based; settings: MCF7, 24 h
[3] = Solubility of the compound in 20% DMSO; type: physicochemical
A549 [4] = assay: Cytotoxicity against human A-549 cells assessed as reduction in cell viability at 10 uM measured after 24 hrs by MTT assay relative to control; type: functional, cell-based; settings: A549, 24 h
HeLa = assay: Cytotoxicity against human HeLa cells assessed as reduction in cell viability at 10 uM measured after 24 hrs by MTT assay relative to control; type: functional, cell-based
HepG2 = assay: Cytotoxicity against human HepG2 cells assessed as reduction in cell viability at 10 uM measured after 24 hrs by MTT assay relative to control; type: functional, cell-based; settings: HepG2, 24 h
A549 [5] = assay: Induction of apoptosis in human A549 cells at 10 uM measured after 6 hrs by Annexin V/Propidium iodide staining based confocal microscopy; type: functional, cell-based
THP-1 = assay: Cytotoxicity against differentiated human THP-1 cells measured after 48 hrs by MTT assay; type: cell-based; settings: THP-1, 48 h
[6] = Selectivity index, ratio of IC50 for differentiated human THP-1 cells to IC50 for Leishmania donovani MHOM/80/IN/Dd8 promastigotes; type: toxicity; settings: differentiated THP-1 cells, read-out: Ratio IC50
[7] = Inhibition of IKK in human HeLa S3 cells using biotinylated IkaapaB-alpha by ELISA phosphorylation assay; type: cell-based
[8] = Inhibition of IKK (unknown origin); set-up: species or system Homo sapiens
[9] = Leishmania donovani, MHOM/80/IN/Dd8, THP-1, 48 h, read-out: IC50

| SMILES | IC50 (Leishmania donovani) | solubility [3] | IC50 (Leishmania donovani; [9]) [µM] | also measured |
| --- | --- | --- | --- | --- |
| COC(=O)c1cc2c([nH]c3ccc(NC(=O)c4cc(C(F)(F)F)cc(C(F)(F)F)c4)cc32)c(C)n1 | Nd(Insoluble) | Insoluble | – | IC50 (L132): 11.2 µM; Activity (MCF7 [1]): Active; IC50 (MCF7 [2]): 13.4 µM; IC50 (A549 [4]): 15.5 µM; IC50 (HeLa): 5.3 µM; IC50 (HepG2): 6.15 µM; Activity (A549 [5]): Active |
| COC(=O)c1cc2c([nH]c3ccc(NC(=O)/C=C/c4ccccc4)cc32)c(C)n1 | Nd(Insoluble) | Insoluble | – | – |
| COC(=O)c1cc2c([nH]c3ccc(NC(=O)c4cccs4)cc32)c(C)n1 | – | – | > 100 | – |
| COC(=O)c1cc2c([nH]c3ccc(NC(=O)c4cc(OC)c(OC)c(OC)c4)cc32)c(C)n1 | – | – | 100 | – |
| CCCCCCCCCCCCCCCCOP(=O)([O-])OCC[N+](C)(C)C [MILTEFOSINE] | – | – | 11.9 | IC50 (THP-1): 31.5 µM; selectivity ratio [6]: 2.64 |
| COCC(=O)Nc1ccc2[nH]c3c(C)nc(C(=O)OC)cc3c2c1 | – | – | > 100 | – |
| COC(=O)c1cc2c([nH]c3ccc(N)cc32)c(C)n1 | – | – | > 100 | – |
| COC(=O)c1cc2c([nH]c3ccc(NC(C)=O)cc32)c(C)n1 | – | – | > 100 | – |
| CCCCC(=O)Nc1ccc2[nH]c3c(C)nc(C(=O)OC)cc3c2c1 | – | – | > 100 | – |
| COC(=O)c1cc2c([nH]c3ccc(NC(=O)c4ccc(OC)cc4)cc32)c(C)n1 | Nd(Insoluble) | Insoluble | – | – |
| COC(=O)c1cc2c([nH]c3ccc(NC(=O)c4ccc5ccccc5c4)cc32)c(C)n1 | Nd(Insoluble) | Insoluble | – | – |
| COC(=O)c1cc2c([nH]c3ccc(NC(=O)c4ccc(C(F)(F)F)cc4)cc32)c(C)n1 | Nd(Insoluble) | Insoluble | – | – |
| COC(=O)c1cc2c([nH]c3ccc(NC(=O)COc4ccccc4)cc32)c(C)n1 | Nd(Insoluble) | Insoluble | – | – |
| Clc1cc2c([nH]c3cnccc32)c(Cl)c1OCC1CC1 | – | – | – | IC50 [7]: 0.08 µM |
| COC(=O)c1cc2c([nH]c3ccc([N+](=O)[O-])cc32)c(C)n1 | – | – | > 100 | – |
| COC(=O)c1cc2c([nH]c3ccc(NC(=O)c4cc(C)oc4C)cc32)c(C)n1 | – | – | > 100 | – |
| COC(=O)c1cc2c([nH]c3ccc(NC(=O)c4ccccc4)cc32)c(C)n1 | – | – | > 100 | – |
| COC(=O)c1cc2c([nH]c3ccc(NC(=O)c4ccc(C)cc4)cc32)c(C)n1 | Nd(Insoluble) | Insoluble | – | – |
| COC(=O)c1cc2c([nH]c3ccc(NC(=O)C4CCCCC4)cc32)c(C)n1 | – | – | 23.5 | IC50 (THP-1): 77 µM; selectivity ratio [6]: 3.27 |
| COc1ccc2[nH]c3cnccc3c2c1Br | – | – | – | IC50 [8]: 1 µM |
| CC(=O)O[C@@]12CO[C@@H]1C[C@H](O)[C@@]1(C)C(=O)[C@H](O)C3=C(C)[C@@H](OC(=O)[C@H](O)[C@@H](NC(=O)OC(C)(C)C)c4ccccc4)C[C@@](O)([C@@H](OC(=O)c4ccccc4)[C@H]21)C3(C)C [DOCETAXEL ANHYDROUS] | – | – | – | IC50 (L132): 1.68 µM; IC50 (MCF7 [2]): 3.6 µM; IC50 (A549 [4]): 3.41 µM; IC50 (HeLa): 3.23 µM; IC50 (HepG2): 2.86 µM |
| COC(=O)c1cc2c([nH]c3ccc(NC(=O)Oc4ccc([N+](=O)[O-])cc4)cc32)c(C)n1 | Nd(Insoluble) | Insoluble | – | – |
| CCCCCCCCCCCC(=O)Nc1ccc2[nH]c3c(C)nc(C(=O)OC)cc3c2c1 | Nd(Insoluble) | Insoluble | – | – |
| COC(=O)c1cc2c([nH]c3ccc(NC(=O)c4ccco4)cc32)c(C)n1 | – | – | > 100 | – |
| COC(=O)c1cc2c([nH]c3ccc(NC(=O)c4ccc(Br)cc4)cc32)c(C)n1 | Nd(Insoluble) | Insoluble | – | – |
| COC(=O)c1cc2c([nH]c3ccccc32)c(C)n1 | – | – | 9 | IC50 (L132): 39.3 µM; IC50 (MCF7 [2]): 45 µM; IC50 (THP-1): > 100 µM; IC50 (A549 [4]): 37.8 µM; IC50 (HeLa): 35.6 µM; IC50 (HepG2): 39.6 µM; selectivity ratio [6]: > 11.1 |
| COC(=O)c1cc2c([nH]c3ccc(NC(=O)c4ccccc4C(F)(F)F)cc32)c(C)n1 | – | – | > 100 | – |
| COC(=O)c1cc2c([nH]c3ccc(NC(=O)c4ccc(C(C)(C)C)cc4)cc32)c(C)n1 | – | – | 68 | IC50 (L132): 3.26 µM; Activity (MCF7 [1]): Active; IC50 (MCF7 [2]): 4.17 µM; IC50 (THP-1): 32 µM; IC50 (A549 [4]): 4.72 µM; IC50 (HeLa): 3.59 µM; IC50 (HepG2): 3.65 µM; selectivity ratio [6]: 0.47; Activity (A549 [5]): Active |
